Test results as given in patent US20210382058A1, “PATIENT SELECTION FOR TREATMENT OF MYC POSITIVE CANCERS WITH INDENOISOQUINOLINES” (Purdue Research Foundation, priority 2020, published 2021).
Where two headings read alike, the source gives them in different places.

What was measured:
[1] = system: MYC protein expression in MCF-7 breast cancer cells; experiment: Western blotting of MYC protein level in MCF-7 cells; assay type: cell-based, human; conditions: Homo sapiens, MCF7; western blotting, MCF-7 cells, 0.5, 1, 2, and 4 μM, 24 hours; read-out: MYC Inhibition
Method in brief: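 Immunoblotting with ECL detection quantified MYC, with GAPDH (1:2000) as reference and anti-MYC at 1:1000.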

[2] = system: NCI-60 cancer cell lines; experiment: NCI-60 cancer cell line drug screen (GI50, MGM); assay type: cell-based, human; conditions: Homo sapiens; for GI50: read-out: Antiproliferative Activities [GI50 (μM)]; for mean GI50 across NCI-60 panel (MGM): average of GI50 values across the entire panel of NCI-60 cancer cell lines
Experimental: Cancer cells were incubated with the test compounds at five concentrations ranging from 100 μM to 10 nM for 48 h. […] The approximate average of GI50 values across the entire panel of NCI-60 cancer cell lines for each compound was recorded as the MGM value.

[3] = target: T1, human topoisomerase I (Homo sapiens, UniProt P11387); conditions: relative topoisomerase I inhibition levels, previously determined, six levels (0 - 5, +++++ = 5); cited from earlier work
T1 sequence (P11387 1-765): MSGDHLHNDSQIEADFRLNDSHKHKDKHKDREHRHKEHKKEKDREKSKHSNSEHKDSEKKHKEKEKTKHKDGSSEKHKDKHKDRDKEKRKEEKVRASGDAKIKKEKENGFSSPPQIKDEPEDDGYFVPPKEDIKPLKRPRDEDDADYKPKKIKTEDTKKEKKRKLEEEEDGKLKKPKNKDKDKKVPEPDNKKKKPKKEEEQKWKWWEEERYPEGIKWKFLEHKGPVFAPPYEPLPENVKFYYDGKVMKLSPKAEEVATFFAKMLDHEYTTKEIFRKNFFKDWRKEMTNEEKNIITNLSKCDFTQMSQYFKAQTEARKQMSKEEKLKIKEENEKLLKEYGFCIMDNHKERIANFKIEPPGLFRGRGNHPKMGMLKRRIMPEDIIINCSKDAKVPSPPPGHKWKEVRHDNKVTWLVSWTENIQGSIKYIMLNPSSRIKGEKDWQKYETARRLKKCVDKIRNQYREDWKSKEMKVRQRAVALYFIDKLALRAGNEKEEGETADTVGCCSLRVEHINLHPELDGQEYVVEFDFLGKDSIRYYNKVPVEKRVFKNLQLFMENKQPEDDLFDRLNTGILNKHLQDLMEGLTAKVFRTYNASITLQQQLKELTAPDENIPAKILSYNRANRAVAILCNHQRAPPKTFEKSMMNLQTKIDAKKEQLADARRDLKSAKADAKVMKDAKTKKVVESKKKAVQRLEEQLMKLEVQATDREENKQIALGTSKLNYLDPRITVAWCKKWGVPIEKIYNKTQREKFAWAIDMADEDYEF

[4] = A549, Non-Small Cell Lung Cancer, A549/ATCC
[5] = COLO 205, Colon Cancer, COLO 205
[6] = DU-145, Prostate Cancer, DU-145
[7] = HCC 2998, Colon Cancer, HCC-2998
[8] = HOP-62, Non-Small Cell Lung Cancer, HOP-62
[9] = HOP-92, Non-Small Cell Lung Cancer, HOP-92
[10] = Hs-578T, Breast Cancer, HS 578T
[11] = IGROV-1, Ovarian Cancer, IGROV1
[12] = MDA-MB-231, Breast Cancer, MDA-MB-231/ATCC
[13] = MDA-MB-435, Melanoma, MDA-MB-435
[14] = MDA-MB-468, Breast Cancer, MDA-MB-468
[15] = NCI-H23, Non-Small Cell Lung Cancer, NCI-H23
[16] = NCI-H226, Non-Small Cell Lung Cancer, NCI-H226
[17] = NCI-H322M, Non-Small Cell Lung Cancer, NCI-H322M
[18] = NCI-H460, Non-Small Cell Lung Cancer, NCI-H460
[19] = NCI-H522, Non-Small Cell Lung Cancer, NCI-H522
[20] = OVCAR-3, Ovarian Cancer, OVCAR-3
[21] = OVCAR-4, Ovarian Cancer, OVCAR-4
[22] = OVCAR-5, Ovarian Cancer, OVCAR-5
[23] = OVCAR-8, Ovarian Cancer, OVCAR-8
[24] = SK-OV-3, Ovarian Cancer, SK-OV-3

CN(C)CCCn1c2c(c3cccnc3c1=O)C(=O)c1ccccc1-2 [Compound 20]
minimal effective concentration [1]: 4 µM
GI50 ([2]; 786-0, Renal Cancer, 786-0): 1.16 µM
GI50 [2, 4]: 0.59 µM
GI50 ([2]; ACHN, Renal Cancer, ACHN): 0.29 µM
GI50 ([2]; BT-549, Breast Cancer, BT-549): 1.67 µM
GI50 ([2]; CAKI-1, Renal Cancer, CAKI-1): 0.57 µM
GI50 ([2]; CCRF-CEM, Leukemia, CCRF-CEM): 1.37 µM
GI50 [2, 5]: 0.47 µM
GI50 [2, 6]: 1.89 µM
GI50 [2, 7]: 2.17 µM
GI50 ([2]; HCT-15, Colon Cancer, HCT-15): 1.03 µM
GI50 ([2]; HCT-116, Colon Cancer, HCT-116): 0.44 µM
GI50 ([2]; HL-60, Leukemia, HL-60(TB)): 1.8 µM
GI50 [2, 8]: 1.25 µM
GI50 [2, 9]: 1.42 µM
GI50 ([2]; HT-29, Colon Cancer, HT29): 1.01 µM
GI50 [2, 10]: 3.08 µM
GI50 [2, 11]: 1.91 µM
GI50 ([2]; K562, Leukemia, K-562): 1.42 µM
GI50 ([2]; KM12, Colon Cancer, KM12): 1.61 µM
GI50 ([2]; LOX IMVI, Melanoma, LOX IMVI): 0.81 µM
GI50 ([2]; Leukemia, SR): 0.31 µM
GI50 ([2]; MCF7, Breast Cancer, MCF7): 0.37 µM
GI50 [2, 12]: 2.58 µM
GI50 [2, 13]: 1.93 µM
GI50 [2, 14]: 1.57 µM
GI50 ([2]; MOLT-4, Leukemia, MOLT-4): 0.29 µM
GI50 ([2]; Melanoma, M14): 1.57 µM
GI50 [2, 15]: 1.86 µM
GI50 [2, 16]: 1.32 µM
GI50 [2, 17]: 2.47 µM
GI50 [2, 18]: 0.41 µM
GI50 [2, 19]: 1.84 µM
GI50 [2, 20]: 2.41 µM
GI50 [2, 21]: 1.93 µM
GI50 [2, 22]: 2.44 µM
GI50 [2, 23]: 0.95 µM
GI50 ([2]; Ovarian Cancer, NCl/ADR-RES): 2.72 µM
GI50 ([2]; Prostate Cancer, PC-3): 2.05 µM
GI50 ([2]; RPMI-8226, Leukemia, RPMI-8226): 1.84 µM
GI50 ([2]; RXF 393, Renal Cancer, RXF 393): 2.31 µM
GI50 ([2]; Renal Cancer, U0-31): 0.57 µM
GI50 ([2]; SF-268, CNS Cancer, SF-268): 2.15 µM
GI50 ([2]; SF-295, CNS Cancer, SF-295): 0.75 µM
GI50 ([2]; SF-539, CNS Cancer, SF-539): 0.85 µM
GI50 ([2]; SK-MEL-2, Melanoma, SK-MEL-2): 3.92 µM
GI50 ([2]; SK-MEL-5, Melanoma, SK-MEL-5): 1 µM
GI50 ([2]; SK-MEL-28, Melanoma, SK-MEL-28): 1.56 µM
GI50 [2, 24]: 2.22 µM
GI50 ([2]; SN12C, Renal Cancer, SN12C): 1.12 µM
GI50 ([2]; SNB-19, CNS Cancer, SNB-19): 1.75 µM
GI50 ([2]; SNB-75, CNS Cancer, SNB-75): 0.66 µM
GI50 ([2]; SW-620, Colon Cancer, SW-620): 0.46 µM
GI50 ([2]; T47D, Breast Cancer, T-47D): 2.04 µM
GI50 ([2]; TK-10, Renal Cancer, TK-10): 3.02 µM
GI50 ([2]; U-251, CNS Cancer, U251): 1.05 µM
GI50 ([2]; UACC-62, Melanoma, UACC-62): 1.3 µM
GI50 ([2]; UACC-257, Melanoma, UACC-257): 2.02 µM
mean GI50 across NCI-60 panel (MGM) [2]: 1260 nM
Top1 Inhibiton [3]: +++ (strong inhibition, +++, MYC expression inhibited at 0.5 to 1.0 μM)

CN(C)CCCn1c2c(c3ccc(N4CCNCC4)cc3c1=O)C(=O)c1ccccc1-2 [Compound 25]
minimal effective concentration [1]: > 4 µM
GI50 ([2]; 786-0, Renal Cancer, 786-0): 1.34 µM
GI50 [2, 4]: 0.22 µM
GI50 ([2]; ACHN, Renal Cancer, ACHN): 0.39 µM
GI50 ([2]; BT-549, Breast Cancer, BT-549): 1.27 µM
GI50 ([2]; CAKI-1, Renal Cancer, CAKI-1): 1.05 µM
GI50 ([2]; CCRF-CEM, Leukemia, CCRF-CEM): 0.34 µM
GI50 [2, 5]: 0.62 µM
GI50 [2, 6]: 0.33 µM
GI50 ([2]; EKVX, Non-Small Cell Lung Cancer, EKVX): 1.18 µM
GI50 [2, 7]: 0.35 µM
GI50 ([2]; HCT-15, Colon Cancer, HCT-15): 0.73 µM
GI50 ([2]; HL-60, Leukemia, HL-60(TB)): 1.17 µM
GI50 [2, 8]: 1.06 µM
GI50 [2, 9]: 1.72 µM
GI50 ([2]; HT-29, Colon Cancer, HT29): 0.35 µM
GI50 [2, 10]: 1.44 µM
GI50 [2, 11]: 0.84 µM
GI50 ([2]; K562, Leukemia, K-562): 0.83 µM
GI50 ([2]; KM12, Colon Cancer, KM12): 1.13 µM
GI50 ([2]; LOX IMVI, Melanoma, LOX IMVI): 0.15 µM
GI50 ([2]; Leukemia, SR): 0.31 µM
GI50 ([2]; MCF7, Breast Cancer, MCF7): 0.3 µM
GI50 [2, 12]: 0.51 µM
GI50 [2, 13]: 1.2 µM
GI50 [2, 14]: 0.95 µM
GI50 ([2]; MOLT-4, Leukemia, MOLT-4): 0.1 µM
GI50 ([2]; Malme-3M, Melanoma, MALME-3M): 1.42 µM
GI50 ([2]; Melanoma, M14): 1.05 µM
GI50 [2, 15]: 1.05 µM
GI50 [2, 16]: 0.56 µM
GI50 [2, 17]: 0.45 µM
GI50 [2, 18]: 0.31 µM
GI50 [2, 19]: 0.96 µM
GI50 [2, 20]: 1.05 µM
GI50 [2, 21]: 0.34 µM
GI50 [2, 22]: 2.12 µM
GI50 [2, 23]: 0.4 µM
GI50 ([2]; Ovarian Cancer, NCl/ADR-RES): 1.16 µM
GI50 ([2]; Prostate Cancer, PC-3): 0.86 µM
GI50 ([2]; RPMI-8226, Leukemia, RPMI-8226): 0.27 µM
GI50 ([2]; RXF 393, Renal Cancer, RXF 393): 1.29 µM
GI50 ([2]; Renal Cancer, U0-31): 0.77 µM
GI50 ([2]; SF-268, CNS Cancer, SF-268): 0.95 µM
GI50 ([2]; SF-295, CNS Cancer, SF-295): 1.16 µM
GI50 ([2]; SF-539, CNS Cancer, SF-539): 1.61 µM
GI50 ([2]; SK-MEL-2, Melanoma, SK-MEL-2): 1.71 µM
GI50 ([2]; SK-MEL-5, Melanoma, SK-MEL-5): 0.7 µM
GI50 ([2]; SK-MEL-28, Melanoma, SK-MEL-28): 1.53 µM
GI50 [2, 24]: 1.05 µM
GI50 ([2]; SN12C, Renal Cancer, SN12C): 0.33 µM
GI50 ([2]; SNB-19, CNS Cancer, SNB-19): 0.54 µM
GI50 ([2]; SNB-75, CNS Cancer, SNB-75): 0.95 µM
GI50 ([2]; SW-620, Colon Cancer, SW-620): 0.16 µM
GI50 ([2]; T47D, Breast Cancer, T-47D): 1.55 µM
GI50 ([2]; TK-10, Renal Cancer, TK-10): 1.33 µM
GI50 ([2]; U-251, CNS Cancer, U251): 0.64 µM
GI50 ([2]; UACC-62, Melanoma, UACC-62): 1.03 µM
GI50 ([2]; UACC-257, Melanoma, UACC-257): 1.69 µM
mean GI50 across NCI-60 panel (MGM) [2]: 720 nM
Top1 Inhibiton [3]: ++ (medium inhibition, ++, MYC expression inhibited at 2.0 μM, or no clear dose-dependent MYC inhibition)
